Entries after “also recorded” stand apart in the source; their conditions may differ. In the oligonucleotide strings, read from the 5' end, every base follows the letter of its sugar. An asterisk marks phosphorothioate; unmarked linkages are phosphodiester. Other units and linkages are bracketed, terminal groups are in braces. A string of capitals states the bases alone. e = 2'-O-(2-methoxyethyl) (MOE); [5mC] = 5-methylcytosine; d = 2'-deoxy (DNA)

The first series deals with mir-15a pri-miRNA. Description: mir-15a pri-miRNA expression in T47D cells (real-time RT-PCR). The conditions noted are these: 100 nM. Type of series: cell-based, human. From the text: The gapmer oligomeric compounds targeting the mir-15b and mir-15-a-1 mature miRNAs described above were also transfected into T47D cells according to standard procedures. In addition, uniform 2′-MOE and 2′-MOE gapmer oligomeric compounds targeting the mature mir-15a-1 and mir-15b miRNAs were also transfected into T47D cells, for analysis of their effects on mir-15a-1 and mir-15b pri-miRNA levels. The oligomeric compounds ISIS Number 327927 (SEQ ID NO: 345), a uniform 2′-MOE compound and ISIS Number 345391 (SEQ ID NO: 345), a 2′-MOE 5-10-7 gapmer compound, both target mir-15b. The oligomeric compounds ISIS Number 327951 (SEQ ID NO: 369), a uniform 2′-MOE compound, and ISIS Number 345411 (SEQ ID NO: 369), a 2′-MOE 5-10-7 gapmer compound, both target mir-15a-1. Oligomeric compounds ISIS Number 129686 ([…]; SEQ ID NO: 901), and ISIS Number 129691 ([…]; SEQ ID NO:902), both universal scrambled controls, as well as ISIS Number 116847 ([…]; SEQ ID NO: 844) targeting an unrelated gene, PTEN, were used as negative controls. ISIS Numbers 129686, 129691, and 116847 are phosphorothiated 2′-MOE 5-10-5 gapmers, and all cytosines are 5-methylcytosines. T47D cells (seeded in 12-well plates) were treated with these oligomeric compounds, and RNA was isolated from the treated cells by lysing in 1 mL TRIZOL™ (Invitrogen) and total RNA was prepared using the manufacturer's recommended protocols. To assess the effects of these compounds on expression of the mir-15a or mir-15b pri-miRNA molecules, real-time RT-PCR analysis was performed using either the primer/probe set specific for the mir-15a pri-miRNA molecule described above, or a primer probe set specific for the mir-15b pri-miRNA molecule: ISIS 339320 ([…]; SEQ ID NO: 903) was used as the forward primer for the mir-15b pri-miRNA, ISIS 339321 ([…] ACTGT; SEQ ID NO: 904) was used as the reverse primer for the mir-15b pri-miRNA, and ISIS 339322 ([…]; SEQ ID NO: 905) was used as the probe. Total RNA was quantified using RiboGreen™ RNA quantification reagent (Molecular Probes, Inc. Eugene, Oreg.), expression levels observed for each target were normalized to 5.8S rRNA, and values are expressed relative to the untreated control. Inhibition of expression of the mir15a or mir-15b pri-miRNA molecules upon treatment with these oligomeric compounds is was assessed and expressed as a percentage of RNA levels in untreated control cells.
Using the real-time RT-PCR methods described, the expression levels of the mir-15a pri-miRNA were compared in T47D cells treated with the nested series of uniform 2′-MOE oligomeric compounds, targeting and spanning the entire length of the mir-15a pri-miRNA. The region encompassing the mir-15a primary transcript (the complement of nucleotides 31603159 to 31603468 of GenBank Accession number NT—024524.13; AAATAATTATG […]) is incorporated herein as SEQ ID NO: 906. ISIS Number 356215 (SEQ ID NO: 879) targets a region flanking and immediately 5′ to the predicted 5′ Drosha cleavage site in the mir-15a pri-miRNA. ISIS Number 356218 (SEQ ID NO: 881) targets aregion in the loop of the mir-15a pri-miRNA. ISIS 356227 (SEQ ID NO: 883) targets a region flanking and immediately 3′ to the predicted 3′ Drosha cleavage site in the mir-15a pri-miRNA. Additionally, oligomeric compound ISIS 327951 (SEQ ID NO: 369), a uniform 2′-MOE compound targeting the mature mir-15a-1 miRNA, was tested for comparison. Oligomeric compounds ISIS 327901 (SEQ ID NO: 319) targeting the mature mir-143 miRNA; ISIS 129690, ([…]; SEQ ID NO: 907), a phosphorothioate 5-10-5 MOE gapmer used as a universal scrambled control; and ISIS 116847 ([…]; SEQ ID NO: 844), a uniform 5-10-52′-MOE gapmer targeting an unrelated gene, PTEN, were used as negative controls. Using the transfection methods previously described, T47D cells were treated with 100 nM of each of these oligomeric compounds. […]
Consider “ISIS 356229: uniform 2′-MOE PS; SEQ ID NO: 884; targets mir-15a pri-miRNA (antisense eA*eG*eA*eT*e[5mC]*eA*eG*eA*eT*e[5mC]*e[5mC]*eT*eT*eG*eT*eA*eT*eT*eT*eT) [uniform 2′-MOE PS; targets mir-15a pri-miRNA]”, for which the “levels of the mir-15a pri-miRNA molecule” value is on record as “stimulate an increase in levels of the mir-15a pri-miRNA molecule”.

With “ISIS 356227: uniform 2′-MOE PS; SEQ ID NO: 883; region immediately 3′ to 3′ Drosha cleavage site of mir-15a pri-miRNA (antisense eT*e[5mC]*e[5mC]*eT*eT*eG*eT*eA*eT*eT*eT*eT*eT*eG*eA*eG*eG*e[5mC]*eA*eG) [uniform 2′-MOE PS; region immediately 3′ to 3′ Drosha cleavage site of mir-15a pri-miRNA]”, the “levels of the mir-15a pri-miRNA molecule” value is “stimulate an increase in levels of the mir-15a pri-miRNA molecule; also recorded: stimulate the greatest increases in expression of the mir-15a pri-miRNA”. On to “ISIS 356232: uniform 2′-MOE PS; targets mir-15a pri-miRNA (antisense eA*eA*eA*eT*eA*eT*eA*eT*eT*eT*eT*e[5mC]*eT*eT*e[5mC]*eA*eG*eA*eA*eG)”, for which the “levels of the mir-15a pri-miRNA molecule” value is “stimulate an increase in levels of the mir-15a pri-miRNA molecule”. On to “TGTAAACCATGATGTGCTGCTA (anti-miR; chemistry not fully specified) [ISIS 327927, uniform 2′-MOE PS; targets mir-15b]”, for which the “levels of the mir-15a pri-miRNA molecule” value was “stimulate an increase in levels of the mir-15a pri-miRNA molecule”. Take “ISIS 356216: uniform 2′-MOE PS; SEQ ID NO: 880; targets mir-15a pri-miRNA (antisense eG*e[5mC]*eA*e[5mC]*e[5mC]*eT*eT*eT*eT*e[5mC]*eA*eA*eA*eA*eT*e[5mC]*e[5mC]*eA*e[5mC]*eA) [uniform 2′-MOE PS; targets mir-15a pri-miRNA]”: the “levels of the mir-15a pri-miRNA molecule” value is given as “stimulate an increase in levels of the mir-15a pri-miRNA molecule”. Regarding “ISIS 356218: uniform 2′-MOE PS; SEQ ID NO: 881; loop of the mir-15a pri-miRNA (antisense eT*eG*eG*e[5mC]*e[5mC]*eT*eG*e[5mC]*eA*e[5mC]*e[5mC]*eT*eT*eT*eT*e[5mC]*eA*eA*eA*eA) [uniform 2′-MOE PS; loop of the mir-15a pri-miRNA]”, the “levels of the mir-15a pri-miRNA molecule” value is given as “stimulate an increase in levels of the mir-15a pri-miRNA molecule”. The same measure, in the same setting: the result for “ISIS 356231: uniform 2′-MOE PS; targets mir-15a pri-miRNA (antisense eT*eT*e[5mC]*eA*eG*eA*eA*eG*eA*eT*e[5mC]*eA*eG*eA*eT*e[5mC]*e[5mC]*eT*eT*eG)” reads “stimulate an increase in levels of the mir-15a pri-miRNA molecule”; that for “ISIS 356215: uniform 2′-MOE PS; SEQ ID NO: 879; region immediately 5′ to 5′ Drosha cleavage site of mir-15a pri-miRNA (antisense eT*eG*e[5mC]*eT*eA*e[5mC]*eT*eT*eT*eA*e[5mC]*eT*e[5mC]*e[5mC]*eA*eA*eG*eG*eT*eT) [uniform 2′-MOE PS; region immediately 5′ to 5′ Drosha cleavage site of mir-15a pri-miRNA]”, “stimulate an increase in levels of the mir-15a pri-miRNA molecule; also recorded: stimulate the greatest increases in expression of the mir-15a pri-miRNA”.

As for “ISIS 356221: uniform 2′-MOE PS; SEQ ID NO: 882; targets mir-15a pri-miRNA (antisense eA*eG*e[5mC]*eA*e[5mC]*eA*eA*eT*eA*eT*eG*eG*e[5mC]*e[5mC]*eT*eG*e[5mC]*eA*e[5mC]*e[5mC]) [uniform 2′-MOE PS; targets mir-15a pri-miRNA]”, the “levels of the mir-15a pri-miRNA molecule” value is reported as “stimulate an increase in levels of the mir-15a pri-miRNA molecule”.

The same series, now with this note: real-time RT-PCR.
For “356232 (eA*eA*eA*eT*eA*eT*eA*eT*eT*eT*eT*e[5mC]*eT*eT*e[5mC]*eA*eG*eA*eA*eG) [compound 356232]”, the “mir-15a pri-miRNA expression % UTC” value is given as 631 % UTC.

Take “356231 (eT*eT*e[5mC]*eA*eG*eA*eA*eG*eA*eT*e[5mC]*eA*eG*eA*eT*e[5mC]*e[5mC]*eT*eT*eG) [compound 356231]”: the “mir-15a pri-miRNA expression % UTC” value is given as 811 % UTC. Same read-out and setting: then “116847 (antisense e[5mC]*eT*eG*e[5mC]*eT*dA*dG*d[5mC]*d[5mC]*dT*d[5mC]*dT*dG*dG*dA*eT*eT*eT*eG*eA) [compound 116847]”, with 132 % UTC.

The next series concerns HepG2 cells. Description: Insulin signaling assay in HepG2 cells, marker genes taken together. Type of series: cell-based, human. The conditions noted are these: HepG2, basal (no insulin).
As to “ISIS 341803: SEQ ID NO: 760, targeting mir-206 (antisense CCACACACTTCCTTACATTCCA; all 2'-MOE, all phosphorothioate, methylation of C not given here)”, the “IGFBP-1 and PEPCK-c marker genes” value was “increases in the IGFBP-1 and PEPCK-c marker genes”.

Another series deals with preadipocytes / differentiating adipocytes. Description: Adipocyte differentiation assay, markers taken together. It is filed as cell-based, human. As to conditions: differentiating adipocytes, % of UTC (Table 55). The protocol:
Oligomeric compounds of the invention are tested for their effects on preadipocyte differentiation. […] For the other adipocyte differentiation markers assayed, an oligomeric compound targeted to PPAR-γ, also known to inhibit adipocyte differentiation, may be used as a positive control.
Cells are transfected as described herein. […] Untreated control cells receive LIPOFECTIN™ only.
After the cells have reach confluence (approximately three days), they are exposed for an additional three days to differentiation medium (Zen-Bio, Inc., Research Triangle Park, N.C.) containing a PPAR-γ agonist, IBMX, dexamethasone, and insulin. Cells are then fed adipocyte medium (Zen-Bio, Inc.), which is replaced at 2 or 3 day intervals.
For assaying adipocyte differentiation, expression of the four hallmark genes, HSL, aP2, Glut4, and PPARγ, as well as triglyceride (TG) accumulation and leptin secretion were measured in adipocytes transfected with the uniform 2′-MOE phosphorothioate (PS) oligomeric compounds previously described. Cells are lysed on day nine post-transfection, in a guanadinium-containing buffer and total RNA is harvested. Real-time PCR is performed (Applied Biosystems, Prism 7700) on the total RNA using the following primer/probe sets for the adipocyte differentiation hallmark genes: (aP2): forward 5′-GGTGGTGGAATGCGTCATG-3′ (SEQ ID NO: 746), reverse 5′-[…]-3′ (SEQ ID NO: 747), probe 5′-FAM-[…]-TAMRA-3′ (SEQ ID NO: 748); (Glut4): forward 5′-GGCCTCCGCAGGTTCTG-3′ (SEQ ID NO: 749), reverse 5′-[…]-3′ (SEQ ID NO: 750), probe 5′-FAM-[…]-TAMRA-3′ (SEQ ID NO: 751); (HSL): forward 5′-ACCTGCGCACAATGACACA-3′ (SEQ ID NO: 752), reverse 5′-[…]-3′ (SEQ ID NO: 753), probe 5′-FAM-[…]-TAMRA-3′ (SEQ ID NO: 754); (PPAR-γ): forward 5′-[…]-3′ (SEQ ID NO: 755), reverse 5′-[…]-3′ (SEQ ID NO: 756), probe 5′-FAM-[…]-TAMRA-3′ (SEQ ID NO: 757). The amount of total RNA in each sample is determined using a Ribogreen Assay (Molecular Probes, Eugene, Oreg.), and expression levels of the adipocyte differentiation hallmark genes were normalized to total RNA. Leptin protein and triglyceride levels as well as mRNA levels for each of the four adipocyte differentiation hallmark genes are expressed relative to control levels (control=treatment with ISIS-29848 (SEQ ID NO: 737)).
In some embodiments, differentiating adipocytes were treated with uniform 2′-MOE phosphorothioate oligomeric compounds according to the methods described above, and the expression of the four hallmark genes, HSL, aP2, Glut4, and PPARγ, as well as triglyceride (TG) accumulation were measured. […] Undifferentiated adipocytes were also compared as a negative control. […] The effects of TNF-α, also known to inhibit adipocyte differentiation, were also measured.
In the case of “TGTAAACCATGATGTGCTGCTA (anti-miR; chemistry not fully specified) [ISIS 327927, uniform 2′-MOE PS; targets mir-15b]”, the “five markers of adipocyte differentiation” value is “increase in all five markers of adipocyte differentiation”.

These data come from patent US8178506B2, “Oligomeric compounds and compositions for use in modulation of small non-coding RNAs” (Regulus Therapeutics Inc., priority 2003, dated 2012).
